Reference: PubChem BioAssay AID179 (DTP/NCI, 2004)
Active and inactive are the calls of the source.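 The calls were made as follows: active = compounds giving half or more protection of infected cells from virus-caused growth loss, again on retest; inactive = the rest.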

Test system: CEM cells HIV-1 protection, formazan growth assay
Assay: NCI AIDS Antiviral Assay
Settings: for IC50: measured here: growth of uninfected CEM cells
Method in brief: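 Five concentrations of each compound were applied to infected and uninfected human CEM cells. Protection from HIV-1 was judged from growth measured with a soluble formazan assay.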

| Structure (SMILES) | EC50 [µM] | IC50 [µM] | outcome |
| --- | --- | --- | --- |
| C=C(NC(=O)C(=C)NC(=O)c1ccc2c(n1)-c1coc(n1)C(=C)NC(=O)C(=C)NC(=O)c1nc(oc1C)C(=C)NC(=O)C(C(C)(C)O)NC(=O)C(=C)NC(=O)c1coc(n1)/C(=C/C)NC(=O)[C@H]([C@@H](C)O)NC(=O)c1csc-2n1)C(N)=O (some centres undefined) | > 100 | > 100 | – |
| O=c1[nH]c(=O)n(COCc2ccccc2)c2ccc([N+](=O)[O-])cc12 | > 200 | > 200 | – |
| C/C(=C\c1ccccc1)C(=O)c1c(C)cc(C)cc1C | > 38 | > 38 | – |
| O=c1c2ccccc2[nH]c(=S)n1-c1ccc(Br)cc1 | > 40.7 | > 40.7 | – |
| COC(=O)C[CH](C(=O)OC)[Ge]([CH3])([CH3])[S]c1ccccc1 (centres undefined) | > 100 | 18.2 | – |
| Cc1cc(-n2nnc(C(=O)O)c2-c2ccccc2)c2ccc(Cl)cc2n1 | > 200 | > 200 | – |
| COC(=O)C(Cc1nc2ccccc2[nH]c1=O)C(=O)C(=O)Nc1ccc(F)cc1 (centres undefined) | > 91.2 | 16.2 | – |
| O=C(O)CCC1CCc2cccc(OCC(=O)O)c2C1=O (centres undefined) | – | – | inactive |
| CCCCN(CCCC)C(=O)C(=O)CC(=O)c1ccc(Br)cc1 | – | – | inactive |
| Nc1nc(NCCO)c(N=O)c(=O)[nH]1 | > 182 | > 182 | – |
| Cc1cc2occ(/C=C\C3=C(C#N)C(=O)OC(C)(C)C3)c(=O)c2cc1C | > 7.76 | > 7.76 | – |
| Cc1ccc(NC(=O)/C(Cc2cc(=O)oc3cc(O)ccc23)=N\NC(=O)C[N+](C)(C)C)cc1C | > 186 | > 186 | – |
| Cc1cnc(SCCN(C)C)nc1-c1cccs1 | > 891 | 22.4 | – |
| CCOC(=O)/C(C#N)=C/c1ccc(SCc2ccco2)c([N+](=O)[O-])c1 | > 200 | > 200 | – |
| O=NN/C(=C1\Nc2ccc([N+](=O)[O-])cc2NC1=O)C(O)c1ccc([N+](=O)[O-])cc1 (centres undefined) | > 234 | 191 | – |
| CN(CC1(CO)CCC1)c1cc(Cl)nc(N)n1 | > 200 | 53.7 | – |
| O=Cc1ccc2c(c1)CC1(C2)Cc2ccc3c(c2C1)CCC3 (centres undefined) | > 200 | 7.41 | – |
| CCOC(=O)/C=C/c1ccc(N(C)C)cc1 | > 33.1 | > 33.1 | – |
| C[N+](C)(C)Cc1c(CC#N)[nH]c2ccccc12 | > 123 | 66.1 | – |
| O=c1cc(-c2ccccc2)oc2c1ccc1[nH]c3ccccc3c(=O)c12 | > 200 | > 200 | – |
| O=C(/C=C/c1cccs1)c1ccc(Cl)s1 | – | – | inactive |

| Structure (SMILES) | EC50 [µM] | IC50 [µM] | outcome |
| --- | --- | --- | --- |
| CSc1cc(-c2ccccn2)nc(-c2ccccn2)c1.CSc1cc(-c2ccccn2)nc(-c2ccccn2)c1.[Co+2].[O-][Cl+3]([O-])([O-])[O-] | > 200 | 0.12 | – |
| COC(=O)c1ccc(C)cc1/C=C1\Cc2ccc(C)cc2C1=O | > 200 | 18.6 | – |
| COC(=O)/C(C#N)=C1\N=NNN1CCCN1CCOCC1 | – | – | inactive |
| NC(CSS(=O)(=O)O)=NCCc1ccccn1 | > 200 | > 200 | – |
| CC(=O)C1CCN(c2ccccc2)C1 (centres undefined) | – | – | inactive |
| O=C1C2=Nc3ccccc3C(O)(C(=O)O)N2c2ccccc21 (centres undefined) | > 200 | 16.6 | – |
| CCOC(=O)c1cn(CC)c2cc3c(cc2c1=O)SCS3 | – | – | inactive |
| CCOC(=O)c1c(-c2ccc(Cl)cc2)c(C#N)c(=S)n(C2OC(COC(C)=O)C(OC(C)=O)C(OC(C)=O)C2OC(C)=O)c1C (centres undefined) | > 200 | 36.3 | – |
| COc1cc(Br)c(CC2NCCc3cc(OC)c(OC)cc32)cc1OC (centres undefined) | > 224 | > 224 | – |
| COc1cccc(N2C(=O)C3c4[nH]c5ccccc5c4C4c5ccccc5CCC4C3C2=O)c1 (centres undefined) | > 100 | > 100 | – |
| O=C(O)/C=C\C(=O)Nc1ccc(SSc2ccc(NC(=O)/C=C\C(=O)O)cc2)cc1 | 182 | > 200 | – |
| N#CCCN(CCCN(C(=O)Nc1ccccc1)c1ccccc1)C(=O)Nc1ccccc1 | > 200 | 95.5 | – |
| COc1ccc(N(CN2C(=O)CCC2OC)C(C)=O)cc1 (centres undefined) | – | – | inactive |
| O=C1CC(NC(=O)C(F)(F)F)c2c(Br)sc(N3CCC(c4ccccc4)CC3)c21 (centres undefined) | > 200 | 145 | – |
| NC(=O)CSSCC(N)=O | 21.4 | 70.8 | – |
| CC(=O)Nc1cc2c(O)c(N=Nc3ccc(C(=O)Nc4ccc(N=Nc5ccc(S(=O)(=O)O)cc5)cc4)cc3)c(S(=O)(=O)O)cc2cc1S(=O)(=O)O | – | – | active |
| CN1CCN(CCCN2c3ccccc3Sc3ccccc32)CC1 | > 741 | 33.1 | – |
| CCCCN(CCCC)CC(C(=O)Nc1ccccc1)/C(C)=N\NC(=O)c1ccncc1 (centres undefined) | > 51.3 | 30.2 | – |
| CCOC(=O)/C(=C/c1ccco1)P(=O)(OCC)OCC | > 832 | 490 | – |
| C[n+]1c(-c2ccc(/C=N/NC(=O)c3ccc(C(=O)N/N=C/c4ccc(-c5cn6ccccc6[n+]5C)cc4)nc3)cc2)cn2ccccc21 | 2.63 | 21.9 | – |
